From patent US10517946B2, “Polyelectrolyte multilayers assembled from immune signal compounds” (University of Maryland, College Park, priority 2015, dated 2019)

Experiments:
TLR3 = target: T1, TLR3 (Mus musculus, UniProt Q99MB1); assay: TLR3 signaling in HEK-Blue mTLR3 cells (AuNP iPEMs); type: cell-based; conditions: 16 hours, absorbance 625 nm
T1 construct: host or cells: HEK-Blue mTLR3 (HEK293-derived reporter cells)
T1 sequence (Q99MB1 26-905): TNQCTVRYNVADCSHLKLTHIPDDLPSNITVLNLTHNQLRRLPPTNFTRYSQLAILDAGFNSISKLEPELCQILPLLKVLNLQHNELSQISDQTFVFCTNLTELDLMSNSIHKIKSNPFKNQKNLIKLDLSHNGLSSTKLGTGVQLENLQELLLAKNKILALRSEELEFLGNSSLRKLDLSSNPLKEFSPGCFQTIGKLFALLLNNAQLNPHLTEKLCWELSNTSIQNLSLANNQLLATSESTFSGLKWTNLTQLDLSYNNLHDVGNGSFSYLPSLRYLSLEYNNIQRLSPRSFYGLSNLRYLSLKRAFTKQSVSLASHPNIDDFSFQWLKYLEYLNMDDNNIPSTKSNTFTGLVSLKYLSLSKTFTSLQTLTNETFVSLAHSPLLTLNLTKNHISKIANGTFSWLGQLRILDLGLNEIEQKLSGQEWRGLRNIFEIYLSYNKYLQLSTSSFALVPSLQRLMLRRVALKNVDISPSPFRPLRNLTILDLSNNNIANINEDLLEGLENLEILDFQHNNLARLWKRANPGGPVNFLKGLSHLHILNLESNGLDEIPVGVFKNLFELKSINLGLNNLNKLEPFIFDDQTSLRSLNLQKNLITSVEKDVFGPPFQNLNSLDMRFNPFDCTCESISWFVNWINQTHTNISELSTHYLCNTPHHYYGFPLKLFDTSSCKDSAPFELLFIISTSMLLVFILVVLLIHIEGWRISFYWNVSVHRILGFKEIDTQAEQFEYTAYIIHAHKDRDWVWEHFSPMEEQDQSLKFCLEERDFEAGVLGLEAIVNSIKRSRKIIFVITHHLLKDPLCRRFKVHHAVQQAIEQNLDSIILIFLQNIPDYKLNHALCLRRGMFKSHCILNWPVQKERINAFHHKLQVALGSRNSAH
Description: TLR3 signaling: TLR3 activity was assessed using HEK-Blue mTLR3 cells (Invivogen). Cells were seeded at a concentration of 5.0×10^4 cells per well, followed by treatment with Pam3CSK4 (0.2 μg/mL), LPS (1.0 μg/mL), polyIC (10 μg/mL), C-ODN (5 μg/mL), SIIN peptide (5 μg/mL), AuNPs (1.9×10^−2 mg/well), AuNP-(C-ODN/SIIN*)2 (80 μg/mL), or AuNP-(polyIC/SIIN*)2 (80 μg/mL). After 16 hours the absorbance was read at 625 nm using a UV/Vis platereader (Molecular Devices).

[1] = test system: splenic CD11c+ DCs from B6 mice; assay: Presentation of SIINFEKL via MHC-I by DCs; type: cell-based, mouse; conditions: anti-SIIN/MHC-I antibody
Description: DC activation and antigen presentation: […] After incubation with iPEM-coated AuNPs, DCs were washed twice with PBS+1% BSA, then blocked in anti-CD16/CD32 (Fcγ III/II receptor) (25× dilution, BD Biosciences) for 15 min at room temperature. The cells were then stained with antibodies for CD80 (FITC), CD86 (AmCyan-A), and CD40 (PE). To quantify presentation of SIINFEKL (SEQ ID NO:15) via the MHC-I pathway, cells were stained with a PE-Cy7 labeled antibody (BioLegend) against anti-mouse H-2Kb bound to OVA257-264 (SIINFEKL (SEQ ID NO:15)). All antibodies were fluorescent conjugates and were used by staining for 20 min at a 1:300 dilution in PBS+1% BSA. Cells were then washed twice in PBS+1% BSA and resuspended in a DAPI solution for analysis by flow cytometry. The data analysis was performed with Flowjo (Treestar).

[2] = test system: DC/OT-I T cell co-cultures; assay: ELISA of cytokines in DC/T cell co-culture supernatants; type: cell-based, mouse; conditions: co-culture supernatant, SIIN-treated samples
Description: (§1) T cell co-culture, activation, and proliferation: […] Untreated cells were used as a negative control. After 48 h, T cells isolated from OT-I mice were stained with CellTrace™ CFSE cell proliferation reagent (5 μg/mL in cell culture medium) by incubation at room temperature for 5 min. T cells were then co-cultured with each DC sample by addition of 3.0×10^5 T cells per well. After an additional 48 h of incubation, cells were centrifuged (800 rcf for 5 min), the supernatants were collected for ELISA, and the cells were washed in PBS+1% FBS. Cells were then blocked as above and stained with anti-CD8a (APC) for 15 min at room temperature. Lastly, cells were washed twice and re-suspended in DAPI. T cell proliferation was determined by the mean fluorescence intensity (MFI) of CFSE signal among DAPI^−, CD8^+ cells compared with positive and negative controls. ELISA: Cytokine levels in the supernatants collected from DCs/T cell co-cultures were analyzed by ELISA using mouse TNF, IFN-γ, and IL-1β ELISA reagents (BD Bioscience) according to the manufacturer's instructions. 10 μL of each supernatant was used in each test, and cytokine concentrations were quantified by comparison to standard curves prepared from known standards.

OT-I CD8+ T cells = assay: DC / OT-I CD8+ T cell co-culture, CFSE proliferation; type: cell-based, mouse; conditions: T cells co-cultured with treated DCs
Description: as §1, with “controls.” for “controls. ELISA: Cytokine levels in the supernatants collected from DCs/T cell co-cultures were analyzed by ELISA using mouse TNF, IFN-γ, and IL-1β ELISA reagents (BD Bioscience) according to the manufacturer's instructions. 10 μL of each supernatant was used in each test, and cytokine concentrations were quantified by comparison to standard curves prepared from known standards.”

primary DCs = type: cell-based, mouse
Description: Cell internalization studies: Association and uptake of coated AuNPs by DCs was characterized by flow cytometry (FACS CantoII, BD Bioscience) and confocal microscopy (Leica SP5X). For flow cytometry, CD11c^+ splenic DCs were seeded in 96 well plates at a concentration of 1.0×10^5 cells per well. Uncoated AuNPs or AuNPs-(polyIC-Cy5/SIIN*-FITC)2 were then added to each well in a volume of 25 μL. Two-fold serial dilutions were performed using a starting iPEM/AuNPs concentration of 1.9 mg/mL. Cells were then cultured for 16 h. After incubation, cells were washed twice by centrifugation and re-suspended in FACS buffer (PBS+1% BSA). The washed cells were finally resuspended in a DAPI solution (0.1% in PBS+1% BSA) to allow assessment of viability by flow cytometry (i.e., DAPI^− cells). Cells positive for FITC and Cy5 signals compared with negative controls were considered to have associated with iPEMs.

Substance	TLR3 signaling (TLR3)	DCs presenting SIIN via MHC-I [1]	cytokine secretion [2]	OT-I T cell proliferation (CFSE dilution) (OT-I CD8+ T cells)	viability of DCs relative to cells treated with LPS (primary DCs) [%]
lipopolysaccharide [LPS]	lack of signal	baseline levels	–	–	–
SIINFEKL (Ovalbumin peptide model antigen) [SIIN peptide]	–	–	lack of cytokine secretion	proliferation of OT-I T cells	–
Polyinosinic-polycytidylic acid [polyIC]	–	baseline levels	–	–	92.8
Pam3CSK4	lack of signal	–	–	–	–
